Data reported in patent US3954737A, “Atropisomeric ansa ring compounds” (University of Illinois Foundation, priority 1974, dated 1976).

Legend:
Reverse Transcriptase = test: Reverse transcriptase (RNA-directed DNA polymerase) inhibition; type: biochemical; parameters: concentration or dose not given beside the values
From the text: (§1) Tables II, III and IV below respectively set forth activities of representative atropisomeric forms of ansa ring compounds of the invention relative to the "normal" isomeric forms in the following assays: (A) reverse transcriptase (RNA-directed DNA polymerase); (B) bacterial RNA polymerase; (C) B. subtilis bacterial inhibition; (D) S. lutea bacterial inhibition; and, inhibition of numerous other bacterial strains.
The assay and work-up conditions for reverse transcriptase analysis were essentially those described by Brockman, et al., (Nature, 230, 249, (1971)), except for eliminating the phosphate from the washing solution (10 percent trichloroacetic acid).

E.Coli RNA Polymerase = E.Coli RNA Polymerase (Escherichia coli, UniProt P0A8V2); test: Bacterial RNA polymerase inhibition; type: biochemical; parameters: concentration or dose not given beside the values; conditions: pH 7.9, 30°C, 15 min
From the text: as §1
The assay for bacterial RNA polymerase followed the procedure of Reusser (J. Bacteriol, 105, 580 (1971)). Assay mixtures were prepared containing in a total volume of 0.25 ml: Tris-hydrochloride buffer, pH 7.9, 5 μmoles; MgCl2, 1 μmole; mercaptoethanol, 3 μmoles; MnCl2, 0.25 μmole; quanosine triphosphate, cytidine triphosphate, uridine triphosphate, 0.1 μmole each; adenosine triphosphate 8-^14 C, 0.1 μmole containing 0.05 μCi; dAT, 0.2 units; polymerase, ~35 μg. The reaction mixtures were incubated at 30°C for 15 min.

S. schottmuelleri = S. schottmuelleri growth inhibition; type: cell-based
Protocol: (§2) Assays for inhibition of other bacterial strains were carried out according to standard uniform procedures.

B. subtilis = B. subtilis bacterial inhibition, zone of inhibition (paper disc on agar); type: cell-based, B. subtilis UC 564; conditions: 1/2 inch paper discs, 0.08 ml per disc
Protocol: The assay for B. subtilis bacterial inhibition was obtained on plates with B. subtilis UC 564 spores in agar with the following composition per liter:
After autoclaving, 10 ml. of 20 percent glucose was added. The seeding rate was approximately 10^9 spores per liter. Test solutions were applied to 1/2 inch paper discs (Schleicher & Schuell 740E) with 0.08 ml. per disc. Zones of inhibition were recorded.

P. vulgaris = P. vulgaris growth inhibition; type: cell-based
Protocol: as §2

P. aeruginosa = P. aeruginosa growth inhibition; type: cell-based
Protocol: as §2

K. pneumoniae = K. pneumoniae growth inhibition; type: cell-based
Protocol: as §2

B. cereus = B. cereus growth inhibition; type: cell-based
Protocol: as §2

S. pasteurianum = S. pasteurianum growth inhibition; type: cell-based
Protocol: as §2

P. oxalicum = P. oxalicum growth inhibition; type: cell-based
Protocol: as §2

S. aureus = S. aureus growth inhibition; type: cell-based
Protocol: as §2

E. coli = E. coli growth inhibition; type: cell-based
Protocol: as §2

S. lutea = S. lutea bacterial inhibition; type: cell-based; conditions: brain heart broth, 37°, 16-18 hours
Protocol: The assay for S. lutea inhibition was as follows. Water-soluble preparations were dissolved in brain heart infusion broth (Difco) to 1 mg./ml. Water-insoluble preparations were dissolved (or suspended) in dimethylformamide to 10 mg./ml. and diluted with brain heart broth to 1 mg./ml. Two-fold serial dilutions were made with broth starting with 1 mg./ml. with final volumes of 0.1 ml. per dilution. Overnight bacterial cultures were diluted 1:20,000 with brain heart and 0.1 ml. of diluted culture was added to each dilution of antibiotic (final total volume was 0.2 ml.). This was all done in plastic microtest plates (Microtest II Tissue Culture Plate, Bioquest). The plates were incubated at 37° for 16-18 hours and zones of inhibition were recorded.

M. avium = M. avium growth inhibition; type: cell-based
Protocol: as §2

E.Coli RNA Polymerase, sequence (P0A8V2 whole entry): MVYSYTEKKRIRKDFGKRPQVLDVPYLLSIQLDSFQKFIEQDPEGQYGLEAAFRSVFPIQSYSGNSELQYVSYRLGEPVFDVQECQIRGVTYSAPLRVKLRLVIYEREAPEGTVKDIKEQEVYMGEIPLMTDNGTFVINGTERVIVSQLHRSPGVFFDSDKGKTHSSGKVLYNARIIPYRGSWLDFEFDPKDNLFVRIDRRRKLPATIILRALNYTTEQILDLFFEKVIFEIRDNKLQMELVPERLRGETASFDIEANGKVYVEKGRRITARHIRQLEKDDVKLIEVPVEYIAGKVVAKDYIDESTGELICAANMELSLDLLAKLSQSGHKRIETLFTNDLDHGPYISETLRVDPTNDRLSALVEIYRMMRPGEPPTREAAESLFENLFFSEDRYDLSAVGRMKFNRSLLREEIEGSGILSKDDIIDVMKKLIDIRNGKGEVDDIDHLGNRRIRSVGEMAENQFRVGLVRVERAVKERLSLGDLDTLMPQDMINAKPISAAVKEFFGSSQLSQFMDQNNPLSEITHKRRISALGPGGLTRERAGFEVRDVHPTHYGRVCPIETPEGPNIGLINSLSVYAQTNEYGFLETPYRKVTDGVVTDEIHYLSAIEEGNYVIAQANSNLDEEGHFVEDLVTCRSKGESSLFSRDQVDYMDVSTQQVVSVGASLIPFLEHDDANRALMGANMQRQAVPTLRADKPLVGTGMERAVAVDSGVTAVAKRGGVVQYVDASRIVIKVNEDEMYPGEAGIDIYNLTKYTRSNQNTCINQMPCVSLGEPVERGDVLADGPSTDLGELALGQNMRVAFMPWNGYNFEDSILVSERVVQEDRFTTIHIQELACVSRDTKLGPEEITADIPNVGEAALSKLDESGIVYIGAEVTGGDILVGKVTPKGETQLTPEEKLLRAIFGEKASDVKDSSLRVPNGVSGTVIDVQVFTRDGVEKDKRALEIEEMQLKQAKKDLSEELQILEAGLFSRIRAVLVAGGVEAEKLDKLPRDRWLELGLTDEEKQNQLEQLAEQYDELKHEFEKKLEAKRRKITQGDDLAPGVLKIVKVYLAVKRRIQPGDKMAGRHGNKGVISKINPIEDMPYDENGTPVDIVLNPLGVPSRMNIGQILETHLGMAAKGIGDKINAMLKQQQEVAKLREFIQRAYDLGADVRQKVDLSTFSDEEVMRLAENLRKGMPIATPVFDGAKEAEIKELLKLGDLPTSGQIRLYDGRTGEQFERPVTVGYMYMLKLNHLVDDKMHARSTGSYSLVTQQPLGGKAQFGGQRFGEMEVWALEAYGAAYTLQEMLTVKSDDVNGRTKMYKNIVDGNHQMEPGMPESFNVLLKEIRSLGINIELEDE
E.Coli RNA Polymerase, sequence (P0A8T7 whole entry partner): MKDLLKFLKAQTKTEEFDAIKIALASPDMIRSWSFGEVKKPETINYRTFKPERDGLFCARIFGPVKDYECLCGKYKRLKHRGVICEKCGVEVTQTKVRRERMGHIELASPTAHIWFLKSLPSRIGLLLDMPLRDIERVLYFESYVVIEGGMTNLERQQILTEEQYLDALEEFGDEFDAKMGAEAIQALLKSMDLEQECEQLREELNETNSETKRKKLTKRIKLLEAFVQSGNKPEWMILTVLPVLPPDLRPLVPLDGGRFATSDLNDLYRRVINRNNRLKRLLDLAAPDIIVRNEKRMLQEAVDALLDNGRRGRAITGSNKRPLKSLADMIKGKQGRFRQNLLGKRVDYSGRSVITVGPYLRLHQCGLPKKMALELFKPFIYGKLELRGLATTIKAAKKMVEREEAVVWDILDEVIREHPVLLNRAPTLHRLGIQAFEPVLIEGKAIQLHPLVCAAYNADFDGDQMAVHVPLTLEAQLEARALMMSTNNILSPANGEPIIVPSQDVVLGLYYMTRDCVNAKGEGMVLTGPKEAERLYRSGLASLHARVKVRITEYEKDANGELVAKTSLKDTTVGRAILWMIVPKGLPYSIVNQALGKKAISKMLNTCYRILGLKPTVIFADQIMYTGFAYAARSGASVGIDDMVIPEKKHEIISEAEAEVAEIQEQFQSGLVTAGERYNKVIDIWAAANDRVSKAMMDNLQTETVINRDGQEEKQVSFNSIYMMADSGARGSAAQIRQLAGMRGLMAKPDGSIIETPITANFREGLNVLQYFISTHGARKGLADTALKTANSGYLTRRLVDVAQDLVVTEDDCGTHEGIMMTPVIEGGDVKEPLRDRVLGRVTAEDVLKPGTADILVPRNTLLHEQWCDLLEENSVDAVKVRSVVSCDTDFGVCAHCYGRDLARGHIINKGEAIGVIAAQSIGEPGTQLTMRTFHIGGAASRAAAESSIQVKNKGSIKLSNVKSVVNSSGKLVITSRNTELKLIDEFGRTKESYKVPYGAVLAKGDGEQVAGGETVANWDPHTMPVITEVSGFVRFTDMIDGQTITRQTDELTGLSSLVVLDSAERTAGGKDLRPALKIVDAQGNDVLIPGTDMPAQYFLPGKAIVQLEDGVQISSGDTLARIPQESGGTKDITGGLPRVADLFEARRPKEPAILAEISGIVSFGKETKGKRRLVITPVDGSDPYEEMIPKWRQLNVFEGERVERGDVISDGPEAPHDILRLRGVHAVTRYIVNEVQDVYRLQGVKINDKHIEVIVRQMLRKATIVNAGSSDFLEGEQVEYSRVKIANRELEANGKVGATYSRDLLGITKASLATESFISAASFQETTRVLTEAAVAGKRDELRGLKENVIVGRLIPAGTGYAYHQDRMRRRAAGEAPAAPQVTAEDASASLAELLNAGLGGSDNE
E.Coli RNA Polymerase, sequence (P0A7Z4 whole entry partner): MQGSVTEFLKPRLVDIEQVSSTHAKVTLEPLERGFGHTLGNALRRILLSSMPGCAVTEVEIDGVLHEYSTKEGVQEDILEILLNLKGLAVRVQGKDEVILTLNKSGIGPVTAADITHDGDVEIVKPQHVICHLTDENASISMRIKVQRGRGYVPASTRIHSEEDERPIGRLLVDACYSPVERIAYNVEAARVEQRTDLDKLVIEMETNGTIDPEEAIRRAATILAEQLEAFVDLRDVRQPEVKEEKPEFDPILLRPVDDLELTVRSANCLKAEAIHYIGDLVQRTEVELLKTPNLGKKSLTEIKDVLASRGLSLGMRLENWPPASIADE
E.Coli RNA Polymerase, sequence (P0A800 whole entry partner): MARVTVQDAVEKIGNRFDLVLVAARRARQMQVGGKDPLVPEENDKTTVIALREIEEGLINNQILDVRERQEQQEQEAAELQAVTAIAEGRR

| Compound | Reverse Transcriptase % Inhibition (Reverse Transcriptase; Table IIA) [%] | E.Coli RNA Polymerase % Inhibition (E.Coli RNA Polymerase; Table IIIA) [%] | Zone of Inhibition (S. schottmuelleri) [mm.] | Reverse Transcriptase % Inhibition (Reverse Transcriptase; Table II) | Zone of Inhibition (B. subtilis) [mm.] | Zone of Inhibition (P. vulgaris) [mm.] | Zone of Inhibition (P. aeruginosa) [mm.] | Zone of Inhibition (K. pneumoniae) [mm.] | E.Coli RNA Polymerase % Inhibition (E.Coli RNA Polymerase; Table III) [%] | Zone of Inhibition (B. cereus) [mm.] | Zone of Inhibition (S. pasteurianum) [mm.] | Zone of Inhibition (P. oxalicum) [mm.] | Zone of Inhibition (S. aureus) [mm.] | Zone of Inhibition (E. coli) [mm.] | Zone of Inhibition (S. lutea) [mm.] | Zone of Inhibition (M. avium) [mm.] |
| --- | --- | --- | --- | --- | --- | --- | --- | --- | --- | --- | --- | --- | --- | --- | --- | --- |
| atropisostreptovaricin C triacetate cyclic bromobenzeneboronate [Atropisostreptovaricin C Triacetate Cyclic p-Bromobenzeneboronate] | 66 | 46 | – | – | – | – | – | – | – | – | – | – | – | – | – | – |
| streptovaricin C triacetate cyclic bromobenzeneboronate [reference compound] | 57 | 20 | – | – | – | – | – | – | – | – | – | – | – | – | – | – |
| atropisostreptovaricin C triacetate cyclic benzeneboronate | 77 | 23 | – | – | – | – | – | – | – | – | – | – | – | – | – | – |
| COC(=O)C1C(O)C(C)C(O)C(C)/C=C/C=C(\C)C(=O)Nc2c(C)c(OC(C)=O)c3c(c2O)C(=O)C(C)=C2OCOC(=C23)/C(C)=C\C(C)(O)C(O)C(C)C1O (stereo not shown) [Atropisostreptovaricin C, atropisostreptovaricin C] | – | – | 0 | 70% | 14 | 0 | 0 | 0 | 50 | 9 | 0 | 0 | 20 | 0 | 28 | 20 |
| atropisostreptovaricin Fc | – | – | 0 | 54% | 0 | 0 | 0 | 0 | 0 | 0 | 0 | 0 | 0 | 0 | 0 | 0 |
| streptovaricin C triacetate cyclic benzeneboronate [reference compound] | 44 | 2 | – | – | – | – | – | – | – | – | – | – | – | – | – | – |
| COC(=O)[C@@H]1[C@H](O)[C@H](C)[C@H](O)[C@H](C)/C=C\C=C(/C)C(=O)Nc2c(C)c(OC(C)=O)c3c(c2O)C(=O)C(C)=C2OCOC(=C23)/C(C)=C/[C@@](C)(O)[C@H](O)[C@@H](C)[C@H]1O [Streptovaricin C, streptovaricin C, reference compound] | – | – | 10 | 31-53% | 22 | 8 | – | 21 | 78 | – | – | 0 | 26 | 13 | 33 | 15 |
| CC(=O)Oc1c(C)c2c(O)c3c1C1=C(OCOC1=C(C)C3=O)C(C)=CC(C)(O)C(O)C(C)C(O)C1C(=O)OC(C(C)/C=C\C=C(C)C(=O)N2)C(C)C1O (stereo not shown) [Streptovaricin Fc, streptovaricin Fc, reference compound] | – | – | 0 | 68% | 0 | 0 | 0 | 0 | 0 | 0 | 0 | 0 | 0 | 0 | 0 | 14 |
